Experimental data from PubChem BioAssay AID248 (DTP/NCI, 2004).
Values joined by “and” are separate entries in the source; they are usually repeats but may differ in a detail not shown here. Identical values can stand only once. Inconclusive results and toxic doses are left out. Cut-off read from the data, not from the text of the source: active = T/C of 150% or more; inactive = T/C below 125%.

Tested on: L1210 leukemia ip in BDF1 mice, survival T/C
Test: NCI In Vivo Anticancer Drug Screen. Data for tumor model L1210 Leukemia (intraperitoneal) in B6D2F1 (BDF1) mice
Conditions: endpoint: mean survival time, higher = longer survival
In short: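 Each compound was tested against a transplantable tumor grown in mice. The endpoint was survival, with treated animals benchmarked against vehicle controls as a simple ratio.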

[1] = dose: 100.0 mg/kg/injection, schedule: Q04DX003 (ip), vehicle: Klucel (hydroxypropylcellulose) (HPC)
[2] = dose: 200.0 mg/kg/injection, schedule: Q04DX003 (ip), vehicle: Klucel (hydroxypropylcellulose) (HPC)
[3] = dose: 400.0 mg/kg/injection, schedule: Q04DX003 (ip), vehicle: Klucel (hydroxypropylcellulose) (HPC)
[4] = dose: 100.0 mg/kg/injection, schedule: Q01DX009 (ip), vehicle: saline
[5] = dose: 200.0 mg/kg/injection, schedule: Q01DX009 (ip), vehicle: saline
[6] = dose: 100.0 mg/kg/injection, schedule: Q01DX001 (ip), vehicle: other
[7] = dose: 100.0 mg/kg/injection, schedule: Q04DX003 (ip), vehicle: saline with Tween-80
[8] = dose: 200.0 mg/kg/injection, schedule: Q01DX001 (ip), vehicle: other
[9] = dose: 200.0 mg/kg/injection, schedule: Q04DX003 (ip), vehicle: saline with Tween-80
[10] = dose: 400.0 mg/kg/injection, schedule: Q01DX001 (ip), vehicle: other
[11] = dose: 100.0 mg/kg/injection, schedule: Q04DX003 (ip), vehicle: saline
[12] = dose: 200.0 mg/kg/injection, schedule: Q04DX003 (ip), vehicle: saline
[13] = dose: 100.0 mg/kg/injection, schedule: Q01DX009 (ip), vehicle: saline with Tween-80
[14] = dose: 100.0 mg/kg/injection, schedule: Q01DX009 (ip), vehicle: Klucel (hydroxypropylcellulose) (HPC)
[15] = dose: 200.0 mg/kg/injection, schedule: Q01DX009 (ip), vehicle: Klucel (hydroxypropylcellulose) (HPC)
[16] = dose: 50.0 mg/kg/injection, schedule: Q01DX009 (ip), vehicle: Klucel (hydroxypropylcellulose) (HPC)
[17] = dose: 100.0 mg/kg/injection, schedule: Q01DX001 (ip), vehicle: saline
[18] = dose: 400.0 mg/kg/injection, schedule: Q01DX009 (ip), vehicle: Klucel (hydroxypropylcellulose) (HPC)

Measured: T/C

Cc1cc2oc(/C=C/C(=O)c3ccc([N+](=O)[O-])cc3)c(C)c2cc1C
inactive: [1] 97 % of control | [2] 90 % of control | [3] 100 % of control

ClCCOCCOc1ccc(C2CCCCC2)cc1
inactive: [4] 106 % of control | [5] 97 % of control | dose: 400.0 mg/kg/injection, schedule: Q01DX009 (ip), vehicle: saline 90 % of control

c1cc[c]([Bi]([c]2ccccc2)[c]2ccccc2)cc1
inactive: dose: 50.0 mg/kg/injection, schedule: Q01DX001 (ip), vehicle: other 95 % of control | [6] 97 % of control | [7] 97 % of control | [8] 97 % of control | [9] 102 % of control | [10] 97 % of control | dose: 400.0 mg/kg/injection, schedule: Q04DX003 (ip), vehicle: saline with Tween-80 103 % of control

Cc1nc(=O)ccn1Cc1ccccc1
inactive: [11] 101 % of control | [12] 101 % of control | dose: 400.0 mg/kg/injection, schedule: Q04DX003 (ip), vehicle: saline 96 % of control

CCN(CC)c1ccc(C(=O)c2ccc(N(CC)CC)cc2)cc1
inactive: dose: 15.0 mg/kg/injection, schedule: Q01DX Z (ip), vehicle: carboxymethylcellulose (CMC) 88 % of control | dose: 30.0 mg/kg/injection, schedule: Q01DX Z (ip), vehicle: carboxymethylcellulose (CMC) 92 % of control | dose: 60.0 mg/kg/injection, schedule: Q01DX Z (ip), vehicle: carboxymethylcellulose (CMC) 92 % of control and 95 % of control | dose: 120.0 mg/kg/injection, schedule: Q01DX Z (ip), vehicle: carboxymethylcellulose (CMC) 94 % of control and 100 % of control | dose: 240.0 mg/kg/injection, schedule: Q01DX Z (ip), vehicle: carboxymethylcellulose (CMC) 100 % of control | dose: 480.0 mg/kg/injection, schedule: Q01DX Z (ip), vehicle: carboxymethylcellulose (CMC) 118 % of control

O=C(CBr)c1ccccc1
inactive: dose: 10.0 mg/kg/injection, schedule: Q04DX003 (ip), vehicle: saline with Tween-80 93 % of control | dose: 20.0 mg/kg/injection, schedule: Q04DX003 (ip), vehicle: saline with Tween-80 97 % of control

CCCCCCC(=O)CCCCCCCCCCCCC(=O)OC
inactive: dose: 400.0 mg/kg/injection, schedule: Q01DX009 (ip), vehicle: saline with Tween-80 88 % of control

Cc1cccc(OC(=O)Nc2ccc(Cl)cc2)c1
inactive: dose: 100.0 mg/kg/injection, schedule: Q01DX001 (ip), vehicle: saline with Tween-80 93 % of control | [13] 89 % of control | dose: 100.0 mg/kg/injection, schedule: Q04DX002 (ip), vehicle: Klucel (hydroxypropylcellulose) (HPC) 88 % of control | dose: 100.0 mg/kg/injection, schedule: Q04DX002 (ip), vehicle: saline with Tween-80 100 % of control and 92 % of control | dose: 200.0 mg/kg/injection, schedule: Q01DX001 (ip), vehicle: saline with Tween-80 90 % of control | dose: 200.0 mg/kg/injection, schedule: Q01DX009 (ip), vehicle: saline with Tween-80 93 % of control | dose: 200.0 mg/kg/injection, schedule: Q04DX002 (ip), vehicle: Klucel (hydroxypropylcellulose) (HPC) 98 % of control | dose: 200.0 mg/kg/injection, schedule: Q04DX002 (ip), vehicle: saline with Tween-80 107 % of control and 90 % of control | dose: 400.0 mg/kg/injection, schedule: Q01DX001 (ip), vehicle: saline with Tween-80 90 % of control | dose: 400.0 mg/kg/injection, schedule: Q04DX002 (ip), vehicle: Klucel (hydroxypropylcellulose) (HPC) 109 % of control | dose: 400.0 mg/kg/injection, schedule: Q04DX002 (ip), vehicle: saline with Tween-80 113 % of control and 114 % of control

COC(=O)C(C)CN1CCCCC1 (centres undefined)
inactive: dose: 50.0 mg/kg/injection, schedule: Q01DX009 (ip), vehicle: saline 101 % of control | [4] 97 % of control | [11] 102 % of control | [5] 101 % of control | [12] 105 % of control

O=C1OCc2cccc3cccc1c23
inactive: [7] 115 % of control | [9] 104 % of control

CSc1ccc(P(=NS(=O)(=O)c2ccc(C)cc2)(c2ccc(SC)cc2)c2ccc(SC)cc2)cc1
inactive: [14] 104 % of control | [15] 98 % of control

CC(C)=CCCNC(=O)NS(=O)(=O)c1ccc(Cl)cc1
inactive: [16] 101 % of control | [14] 95 % of control | [1] 104 % of control | [15] 102 % of control | [2] 110 % of control | [3] 95 % of control

Cc1ccc([N+](=O)[O-])cc1NC(=O)Nc1onc(C)c1C
inactive: [16] 90 % of control | [15] 87 % of control

O=S(=O)(O)C(I)I
inactive: dose: 6.25 mg/kg/injection, schedule: Q01DX001 (ip), vehicle: saline 103 % of control | dose: 12.5 mg/kg/injection, schedule: Q01DX001 (ip), vehicle: saline 100 % of control | dose: 25.0 mg/kg/injection, schedule: Q01DX001 (ip), vehicle: saline 98 % of control and 100 % of control | [17] 103 % of control

Cc1cccc(NC(=O)NCCN(C)Cc2ccccc2)c1
inactive: dose: 50.0 mg/kg/injection, schedule: Q01DX001 (ip), vehicle: carboxymethylcellulose (CMC) 101 % of control | dose: 100.0 mg/kg/injection, schedule: Q01DX001 (ip), vehicle: carboxymethylcellulose (CMC) 98 % of control | dose: 200.0 mg/kg/injection, schedule: Q01DX001 (ip), vehicle: carboxymethylcellulose (CMC) 101 % of control | dose: 400.0 mg/kg/injection, schedule: Q01DX001 (ip), vehicle: carboxymethylcellulose (CMC) 104 % of control

CC[C@]1(O)C[C@H](OC2CC(N(C)C)C(OC3CC(O)C(O)C(C)O3)C(C)O2)c2c(cc3c(c2O)C(=O)c2c(O)ccc(O)c2C3=O)[C@H]1C(=O)OC (some centres undefined)
inactive: dose: 0.2 mg/kg/injection, schedule: Q04DX002 (ip), vehicle: Klucel (hydroxypropylcellulose) (HPC) 104 % of control | dose: 0.4 mg/kg/injection, schedule: Q01DX001 (ip), vehicle: Klucel (hydroxypropylcellulose) (HPC) 108 % of control | dose: 0.4 mg/kg/injection, schedule: Q04DX002 (ip), vehicle: Klucel (hydroxypropylcellulose) (HPC) 114 % of control | dose: 0.8 mg/kg/injection, schedule: Q01DX001 (ip), vehicle: Klucel (hydroxypropylcellulose) (HPC) 105 % of control | dose: 0.8 mg/kg/injection, schedule: Q04DX002 (ip), vehicle: Klucel (hydroxypropylcellulose) (HPC) 107 % of control | dose: 1.6 mg/kg/injection, schedule: Q01DX001 (ip), vehicle: Klucel (hydroxypropylcellulose) (HPC) 111 % of control | dose: 1.6 mg/kg/injection, schedule: Q04DX002 (ip), vehicle: Klucel (hydroxypropylcellulose) (HPC) 107 % of control | dose: 3.2 mg/kg/injection, schedule: Q01DX001 (ip), vehicle: Klucel (hydroxypropylcellulose) (HPC) 116 % of control | dose: 6.4 mg/kg/injection, schedule: Q01DX001 (ip), vehicle: Klucel (hydroxypropylcellulose) (HPC) 120 % of control

CC(C)(C)OC(=O)N1CC=CCN1C(=O)OC(C)(C)C
inactive: [6] 98 % of control | [8] 93 % of control | [10] 102 % of control

C=CCOCC(O)CNCC(O)COCC=C (centres undefined)
inactive: dose: 25.0 mg/kg/injection, schedule: Q01DX009 (ip), vehicle: saline with Tween-80 98 % of control | dose: 25.0 mg/kg/injection, schedule: Q04DX003 (ip), vehicle: saline with Tween-80 100 % of control | dose: 50.0 mg/kg/injection, schedule: Q01DX009 (ip), vehicle: saline with Tween-80 101 % of control | dose: 50.0 mg/kg/injection, schedule: Q04DX003 (ip), vehicle: saline with Tween-80 92 % of control | [13] 101 % of control | [7] 102 % of control

O=[N+]([O-])c1ccc(/C=C/c2ccccc2Cl)cc1
inactive: [14] 97 % of control | [1] 109 % of control | [15] 97 % of control | [2] 104 % of control | [18] 101 % of control | [3] 107 % of control

Cc1c[n+](=O)c(C)cn1[O-]
inactive: [17] 97 % of control | dose: 200.0 mg/kg/injection, schedule: Q01DX001 (ip), vehicle: saline 100 % of control | dose: 400.0 mg/kg/injection, schedule: Q01DX001 (ip), vehicle: saline 103 % of control

CCN(c1ccccc1)c1ccc(C=O)cc1
inactive: [14] 98 % of control | [1] 97 % of control | [15] 94 % of control | [2] 102 % of control | [18] 93 % of control | [3] 105 % of control
